For this test, the system named is P388 leukemia ip, CD2F1 mice, survival T/C. The test is described as follows: NCI In Vivo Anticancer Drug Screen. Data for tumor model P388 Leukemia (intraperitoneal) in CD2F1 (CDF1) mice. Conditions: endpoint: median survival time, higher = longer survival. An outline of the steps: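 Mice carrying the transplanted tumor received test compound or vehicle. Survival was recorded in each group, and the value is the treated-group measurement divided by that of the vehicle-treated control group.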

[1] abbreviates: dose: 60.0 mg/kg/injection, schedule: Q01DX005 (ip), vehicle: saline.
Setting [2] is: dose: 120.0 mg/kg/injection, schedule: Q01DX005 (ip), vehicle: saline.
The mark [3] stands for this setting: dose: 240.0 mg/kg/injection, schedule: Q01DX005 (ip), vehicle: saline.
The mark [4] stands for this setting: dose: 12.5 mg/kg/injection, schedule: Q01DX005 (ip), vehicle: Klucel (hydroxypropylcellulose) (HPC).
The mark [5] stands for this setting: dose: 25.0 mg/kg/injection, schedule: Q01DX005 (ip), vehicle: Klucel (hydroxypropylcellulose) (HPC).
Where [6] appears, read: dose: 50.0 mg/kg/injection, schedule: Q01DX005 (ip), vehicle: saline with Tween-80.
The mark [7] stands for this setting: dose: 100.0 mg/kg/injection, schedule: Q01DX005 (ip), vehicle: saline with Tween-80.
The mark [8] stands for this setting: dose: 200.0 mg/kg/injection, schedule: Q01DX005 (ip), vehicle: saline with Tween-80.
Where [9] appears, read: dose: 60.0 mg/kg/injection, schedule: Q01DX005 (ip), vehicle: saline with Tween-80.
Where [10] appears, read: dose: 120.0 mg/kg/injection, schedule: Q01DX005 (ip), vehicle: saline with Tween-80.
Setting [11] is: dose: 240.0 mg/kg/injection, schedule: Q01DX005 (ip), vehicle: saline with Tween-80.
Where [12] appears, read: dose: 100.0 mg/kg/injection, schedule: Q04DX002 (ip), vehicle: saline with Tween-80.
Where [13] appears, read: dose: 200.0 mg/kg/injection, schedule: Q04DX002 (ip), vehicle: saline with Tween-80.
Where [14] appears, read: dose: 400.0 mg/kg/injection, schedule: Q04DX002 (ip), vehicle: saline with Tween-80.
Setting [15] is: dose: 60.0 mg/kg/injection, schedule: Q01DX005 (ip), vehicle: Klucel (hydroxypropylcellulose) (HPC).
[16] abbreviates: dose: 120.0 mg/kg/injection, schedule: Q01DX005 (ip), vehicle: Klucel (hydroxypropylcellulose) (HPC).
The mark [17] stands for this setting: dose: 100.0 mg/kg/injection, schedule: Q01DX009 (ip), vehicle: saline with Tween-80.

“And” between values parts separate entries of the source, which are not always exact repeats. Equal entries are not always repeated. Toxic doses and inconclusive results are not listed. Peptide text beside a SMILES is read from it. * marks the point of attachment. Cbz = O=C(OCc1ccccc1)*

Turning to `C/C(=N\N=P(c1ccccc1)(c1ccccc1)c1ccccc1)C(C)(C)C`, the T/C is 100 % of control (dose: 6.25 mg/kg/injection, schedule: Q01DX009 (ip), vehicle: Klucel (hydroxypropylcellulose) (HPC)); 95 % of control (dose: 12.5 mg/kg/injection, schedule: Q01DX009 (ip), vehicle: Klucel (hydroxypropylcellulose) (HPC)); 94 % of control (dose: 25.0 mg/kg/injection, schedule: Q01DX009 (ip), vehicle: Klucel (hydroxypropylcellulose) (HPC)).
Consider `COc1nc(N)c(NC(C)=O)c(=O)n1C`, for which the T/C under setting [1] is 96 % of control, the T/C under setting [2] was 96 % of control and the T/C under setting [3] was 93 % of control.
As for `C=C1C(=O)OC2C1C(OC(=O)/C(C)=C/C)CC1(COC(O)C1)C2C(=C)C` (stereo not given), the T/C is, setting by setting: (dose: 2.5 mg/kg/injection, schedule: Q01DX009 (ip), vehicle: saline + alcohol) 107 % of control; (dose: 5.0 mg/kg/injection, schedule: Q01DX009 (ip), vehicle: saline + alcohol) 118 % of control; (dose: 10.0 mg/kg/injection, schedule: Q01DX009 (ip), vehicle: saline + alcohol) 109 % of control; (dose: 20.0 mg/kg/injection, schedule: Q01DX009 (ip), vehicle: saline + alcohol) 100 % of control.
Consider `O=c1ccn(C2CCCCC2)c(=O)[nH]1`, for which the T/C was 99 % of control (dose: 6.25 mg/kg/injection, schedule: Q01DX005 (ip), vehicle: Klucel (hydroxypropylcellulose) (HPC)); 95 % of control under setting [4]; 91 % of control under setting [5].
For `O=C(NC(=S)Nc1ccccc1)c1ccccc1`, the T/C is, setting by setting: (dose: 9.4 mg/kg/injection, schedule: Q01DX009 (ip), vehicle: Klucel (hydroxypropylcellulose) (HPC)) 106 % of control; (dose: 18.75 mg/kg/injection, schedule: Q01DX009 (ip), vehicle: Klucel (hydroxypropylcellulose) (HPC)) 101 % of control; (dose: 37.5 mg/kg/injection, schedule: Q01DX009 (ip), vehicle: Klucel (hydroxypropylcellulose) (HPC)) 94 % of control; (dose: 75.0 mg/kg/injection, schedule: Q01DX009 (ip), vehicle: Klucel (hydroxypropylcellulose) (HPC)) 96 % of control.
Take `O=Nc1c2cc3ccccc3[nH]c-2c2ccccc12`: the T/C is 101 % of control under setting [6], 93 % of control under setting [7] and 97 % of control under setting [8].
For `c1ccc(-c2nc(N3CCN(c4ccco4)CC3)c3c4c(sc3n2)CCC4)cc1`, the T/C runs as follows: under setting [4], 97 % of control; under setting [5], 90 % of control; (dose: 50.0 mg/kg/injection, schedule: Q01DX005 (ip), vehicle: Klucel (hydroxypropylcellulose) (HPC)) 90 % of control and 91 % of control.
For the compound `[Se]=[Mo]=[Se]`, the T/C is, setting by setting: under setting [9], 96 % of control; under setting [10], 95 % of control; under setting [11], 97 % of control.
Turning to `O=C1CSC(c2cccc(O)c2)N1c1nncs1` (stereo not given), the T/C is, setting by setting: under setting [9], 114 % of control; under setting [10], 107 % of control; under setting [11], 95 % of control.
For `COc1cc2c(cc1OC)C(C)P(C)(=O)CC2O` (stereo not given), the T/C is 100 % of control under setting [12]; 109 % of control (dose: 100.0 mg/kg/injection, schedule: Q04DX002 (ip), vehicle: saline); 107 % of control under setting [13]; 98 % of control (dose: 200.0 mg/kg/injection, schedule: Q04DX002 (ip), vehicle: saline); 100 % of control under setting [14]; 98 % of control (dose: 400.0 mg/kg/injection, schedule: Q04DX002 (ip), vehicle: saline).
As for `O=C1CS(=O)(=O)C(c2ccccc2F)N1N1C(=O)CS(=O)(=O)C1c1ccccc1F` (stereo not given), the T/C by setting is: (dose: 15.0 mg/kg/injection, schedule: Q01DX005 (ip), vehicle: saline with Tween-80) 98 % of control and 87 % of control; (dose: 30.0 mg/kg/injection, schedule: Q01DX005 (ip), vehicle: saline with Tween-80) 89 % of control; under setting [9], 87 % of control and 89 % of control.
Turning to `OCCCNc1nc2cc(Cl)ccc2o1`, the T/C is 119 % of control under setting [9], 103 % of control under setting [10] and 100 % of control under setting [11].
`COC(=O)c1nc(SC)[nH]c1CC#N`: the T/C is, setting by setting: under setting [12], 108 % of control; under setting [13], 98 % of control; under setting [14], 99 % of control.
Consider `CCCCN(CCO)CC(O)Cn1cnc2c(N)ncnc21` (stereo not given) (tested in a mixture with another compound), for which the T/C is, setting by setting: under setting [1], 94 % of control; under setting [2], 97 % of control; under setting [3], 94 % of control.
As to `On1cccc2c(Br)cnc1-2`, the T/C is, setting by setting: (dose: 100.0 mg/kg/injection, schedule: Q01DX001 (ip), vehicle: saline with Tween-80) 98 % of control; (dose: 200.0 mg/kg/injection, schedule: Q01DX001 (ip), vehicle: saline with Tween-80) 99 % of control; (dose: 400.0 mg/kg/injection, schedule: Q01DX001 (ip), vehicle: saline with Tween-80) 90 % of control.
As for `CC(=O)C[n+]1cccc(C)c1Sc1ccccc1`, the T/C reads like this: (dose: 12.5 mg/kg/injection, schedule: Q01DX005 (ip), vehicle: saline with Tween-80) 97 % of control; (dose: 25.0 mg/kg/injection, schedule: Q01DX005 (ip), vehicle: saline with Tween-80) 101 % of control; under setting [6], 108 % of control and 94 % of control.
For the compound `O=S(=O)(O)O.[NH-]C1CCCC1[NH-].[Pt+2]` (stereo not given), the T/C (dose: 6.25 mg/kg/injection, schedule: Q04DX002 (ip), vehicle: saline) is 177 % of control and 195 % of control; the T/C (dose: 12.5 mg/kg/injection, schedule: Q04DX002 (ip), vehicle: saline) was 180 % of control and 202 % of control; the T/C (dose: 12.5 mg/kg/injection, schedule: Q04DX002 (ip), vehicle: suspension in saline) was 191 % of control; the T/C (dose: 25.0 mg/kg/injection, schedule: Q04DX002 (ip), vehicle: saline) was 198 % of control and 194 % of control.
Regarding `O=C1NC2(CCCCC2)C(=O)N1CCCN1C(=O)NC2(CCCCC2)C1=O`, the T/C runs as follows: under setting [9], 107 % of control; under setting [10], 102 % of control; under setting [11], 101 % of control.
For the compound `NC(=O)C(Cc1ccccc1)NC(=O)C(Cc1ccccc1)NC(=O)C(Cc1ccccc1)NC(=O)OCc1ccccc1` (stereo not drawn) (Cbz-Phe-Phe-Phe-NH2; configuration not given here), the T/C is 91 % of control under setting [6], 97 % of control under setting [7] and 102 % of control under setting [8].
On to `O=C(O)/C=C\C(=O)O`, for which the T/C (dose: 1.5 mg/kg/injection, schedule: Q01DX009 (ip), vehicle: saline with Tween-80) was 95 % of control; the T/C (dose: 3.0 mg/kg/injection, schedule: Q01DX009 (ip), vehicle: saline with Tween-80) was 100 % of control; the T/C (dose: 6.0 mg/kg/injection, schedule: Q01DX009 (ip), vehicle: saline with Tween-80) was 109 % of control; the T/C (dose: 25.0 mg/kg/injection, schedule: Q01DX009 (ip), vehicle: saline) is 95 % of control; the T/C (dose: 50.0 mg/kg/injection, schedule: Q01DX009 (ip), vehicle: saline) is 104 % of control; the T/C (dose: 100.0 mg/kg/injection, schedule: Q01DX009 (ip), vehicle: saline) is 95 % of control.
With `C/C(CCl)=N\NC1=NC2(CCCCC2)P(=O)(NNc2ncccn2)S1` (stereo not given), the T/C is, setting by setting: (dose: 37.5 mg/kg/injection, schedule: Q01DX005 (ip), vehicle: Klucel (hydroxypropylcellulose) (HPC)) 103 % of control; under setting [15], 102 % of control; (dose: 75.0 mg/kg/injection, schedule: Q01DX005 (ip), vehicle: Klucel (hydroxypropylcellulose) (HPC)) 102 % of control; under setting [16], 100 % of control.
For `CCOC(=O)/C(C#N)=C/Nc1ccncc1`, the T/C runs as follows: (dose: 50.0 mg/kg/injection, schedule: Q01DX009 (ip), vehicle: saline with Tween-80) 95 % of control; under setting [17], 87 % of control.
For `O=C1CCC2(CC(Br)C(=O)c3ccccc32)C(=O)N1` (stereo not given), the T/C is 113 % of control under setting [15] and 113 % of control under setting [16].
In the case of `CC(C)(Cl)C1OC(C(C)(C)Cl)OC(C(C)(C)Cl)O1` (stereo not given), the T/C is 91 % of control under setting [17]; 94 % of control (dose: 200.0 mg/kg/injection, schedule: Q01DX009 (ip), vehicle: saline with Tween-80); 103 % of control (dose: 400.0 mg/kg/injection, schedule: Q01DX009 (ip), vehicle: saline with Tween-80).

The values above are taken from PubChem BioAssay AID330 (DTP/NCI, 2004).
